Measurements taken from patent publication US7772188B2, “Methods and compositions for the treatment of gastrointestinal disorders” (priority 2003, dated 2010).
Positions of bridges follow the written chain, without caps; N, C: chain ends. Residues, ends and D or L forms follow the SMILES beside them.

Columns and labels:
[1] = tested on: gastrointestinal transit; assay: Murine gastrointestinal transit (GIT) assay, charcoal front; format: in vivo, mice
Method: In order to determine whether the peptides increase the rate of gastrointestinal transit, the peptides and controls were tested using a murine gastrointestinal transit (GIT) assay (Moon et al. Infection and Immunity 25:127, 1979). In this assay, charcoal, which can be readily visualized in the gastrointestinal tract is administered to mice after the administration of a test compound. The distance traveled by the charcoal is measured and expressed as a percentage of the total length of the […].
Mice were fasted with free access to water for 12 to 16 hours before the treatment with peptide or control buffer. The peptides were orally administered at 1 μg/kg-1 mg/kg of peptide in buffer (20 mM Tris pH 7.5) 7 minutes before being given an oral dose of 5% Activated Carbon (Aldrich 242276-250G). Control mice were administered buffer only before being given a dose of Activated Carbon. After 15 minutes, the mice were sacrificed and their intestines from the stomach to the cecum were dissected. The total length of the intestine as well as the distance traveled from the stomach to the charcoal front was measured for each animal and the results are expressed as the percent of the total length of the intestine traveled by the charcoal front. All results are reported as the average of 10 mice±standard deviation. A comparison of the distance traveled by the charcoal between the mice treated with peptide versus the mice treated with vehicle alone was performed using a Student's t test and a statistically significant difference was considered for P<0.05. P-values are calculated using a two-sided T-Test assuming unequal variances.
The identical experiment was performed to determine if SEQ ID NO:3 is effective in a chronic dosing treatment regimen. Briefly, 8 week old CD1 female mice are dosed orally once a day for 5 days with either SEQ ID NO:3 (0.06 mg/kg or 0.25 mg/kg in 20 mM Tris pH 7.5) or vehicle alone (20 mM Tris pH 7.5). On the 5th day, a GIT assay is performed identical to that above except 200 μl of a 10% charcoal solution is administered. […] The results are shown side by side with acute dosing (1 day).

[2] = Absorbability/bioavailability study in mice, serum detection by competitive ELISA; format: in vivo, CD1 mice; conditions: FIG. 10a
Method: To study the pharmacokinetics of SEQ ID NO:3, absorbability studies in mice were performed by administering SEQ ID NO:3 intravaneously via tail vein injection or orally by gavage to 8-week-old CD1 mice. Serum was collected from the animals at various time points and tested for the presence of SEQ ID NO:3 using a competitive enzyme-linked immunoabsorbent assay (Oxoid, ST EIA kit, Cat#TD0700). The assay utilized monoclonal antibodies against ST peptide (antibodies are provided in the Oxoid kit) and synthetically manufactured SEQ ID NO:3.

[3] = Bioavailability study in mice, serum detection by LCMS; format: in vivo; conditions: FIG. 10b
Method: A similar bioavailability study was performed in which LCMS rather than ELISA was used to detect SEQ ID NO:3. Initially, serum samples were extracted from the whole blood of exposed and control mice, then injected directly ([…]) onto an in-line solid phase extraction (SPE) column (Waters Oasis HLB […] column, 2.0×15 mm direct connect) without further processing. The sample on the SPE column was washed with a 5% methanol, 95% dH2O solution (2.1 mL/min, 1.0 minute), then loaded onto an analytical column using a valve switch that places the SPE column in an inverted flow path onto the analytical column (Waters Xterra MS C8 5 mm IS column, 2.1×20 mm). The sample was eluted from the analytical column with a reverse phase gradient (Mobile Phase A: 10 mM ammonium hydroxide in dH2O, Mobile Phase B: 10 mM ammonium hydroxide in 80% acetonitrile and 20% methanol; 20% B for the first 3 minutes then ramping to 95% B over 4 min. and holding for 2 min., all at a flow rate of 0.4 mL/min.). At 9.1 minutes, the gradient returns to the initial conditions of 20% B for 1 min. SEQ ID NO:3 eluted from the analytical column at 1.45 minutes, and was detected by triple-quadrapole mass spectrometry (MRM, 764 (+2 charge state)>182 (+1 charge state) Da; cone voltage=30V; collision=20 eV; parent resolution=2 Da at base peak; daughter resolution=2 Da at base peak). […]

[4] = tested on: PBQ-induced writhing; assay: Phenylbenzoquinone (PBQ)-induced writhing model
[5] = CD1, mouse, serum, oral versus IV

## C[C@@H]1NC(=O)[C@@H]2CCCN2C(=O)[C@H](CC(N)=O)NC(=O)[C@@H]2CSSC[C@H](N)C(=O)N[C@H]3CSSC[C@H](NC1=O)C(=O)N[C@@H]([C@@H](C)O)C(=O)NCC(=O)N[C@H](C(=O)N[C@@H](Cc1ccc(O)cc1)C(=O)O)CSSC[C@H](NC(=O)[C@H](Cc1ccc(O)cc1)NC(=O)[C@H](CCC(=O)O)NC3=O)C(=O)N2 [SEQ ID NO:3, Cys Cys Glu Tyr Cys Cys Asn Pro Ala Cys Thr Gly Cys Tyr] (H-CCEYCCNPACTGCY-OH; disulfide 1-6, 2-10, 5-13; N-terminus and C-terminus assumed)
[1]; acute, oral, mice, SEQ ID NO:4 and Zelnorm 0.1 mg/kg, FIG. 3a/3b
  gastrointestinal transit rate: increase gastrointestinal transit rate
[1]; acute, oral, mice, chemically synthesized peptides, FIG. 4b
  intestinal transit rate versus Tris buffer or equivalent dose of Zelnorm: increase intestinal transit rates more than either Tris buffer alone or an equivalent dose of Zelnorm®
[1]; oral once a day for 5 days, CD1 female mice, FIG. 4c
  effect in mouse gastrointestinal motility assay upon chronic dosing: effective
[2]; [5]
  bioavailability: < 2.2%
[2]; oral
  systemic absorption: minimally systemically absorbed
[3]; [5]
  bioavailability: < 0.11%
[3]; oral
  systemic absorption: minimally systemically absorbed
[4]; mouse PBQ writhing, visceral pain model
  antinociceptive effect relative to indomethacin: antinociceptive effects in this visceral pain model comparable to the intermediate doses of indomethacin
[4]; mouse, oral, 2.5 mg/kg dose, FIG. 8b
  writhings compared to the vehicle control: Significant reductions in writhings
